# Calls of active or inactive are those of the source. The calls are words filed in the database; no cut-off is given here.
# Tests used:
# Helianthus annuus [1] = experiment: Herbicidal activity against Helianthus annuus (sunflower) assessed as visual injury at 10 ug/seedling applied to meristem after 1 week relative to control; type: functional
# Helianthus annuus [2] = experiment: Herbicidal activity against Helianthus annuus (sunflower) assessed as visual injury at 100 ug/seedling applied to meristem after 1 week relative to control; type: functional
# [3] = system: Agrostis stolonifera var. palustris; experiment: Herbicidal activity against Agrostis stolonifera var. palustris assessed as stunting after 9 days by agarose-based test; type: functional, organism-based
# Helianthus annuus [4] = experiment: Herbicidal activity against Helianthus annuus (sunflower) assessed as visual injury at 1 ug/seedling applied to cotyledon after 1 week relative to control; type: functional
# Helianthus annuus [5] = experiment: Herbicidal activity against Helianthus annuus (sunflower) assessed as visual injury at 10 ug/seedling applied to cotyledon after 1 week relative to control; type: functional
# Helianthus annuus [6] = experiment: Herbicidal activity against Helianthus annuus (sunflower) assessed as visual injury at 100 ug/seedling applied to cotyledon after 1 week relative to control; type: functional
# Helianthus annuus [7] = experiment: Herbicidal activity against Helianthus annuus (sunflower) assessed as visual injury at 1 ug/seedling applied to meristem after 1 week relative to control; type: functional
# Abutilon theophrasti [8] = experiment: Herbicidal activity against Abutilon theophrasti (velvetleaf) assessed as visual injury at 1 ug/seedling applied to leaf after 1 week relative to control; type: functional
# Abutilon theophrasti [9] = experiment: Herbicidal activity against Abutilon theophrasti (velvetleaf) assessed as visual injury at 10 ug/seedling applied to leaf after 1 week relative to control; type: functional
# Abutilon theophrasti [10] = experiment: Herbicidal activity against Abutilon theophrasti (velvetleaf) assessed as visual injury at 100 ug/seedling applied to leaf after 1 week relative to control; type: functional
# Abutilon theophrasti [11] = experiment: Herbicidal activity against Abutilon theophrasti (velvetleaf) assessed as visual injury at 1 ug/seedling applied to meristem after 1 week relative to control; type: functional
# Abutilon theophrasti [12] = experiment: Herbicidal activity against Abutilon theophrasti (velvetleaf) assessed as visual injury at 10 ug/seedling applied to meristem after 1 week relative to control; type: functional
# Abutilon theophrasti [13] = experiment: Herbicidal activity against Abutilon theophrasti (velvetleaf) assessed as visual injury at 100 ug/seedling applied to meristem after 1 week relative to control; type: functional
# Arabidopsis thaliana [14] = experiment: Growth inhibition of Arabidopsis thaliana var. Columbia assessed as root tip puffing after 9 days by agarose-based test; type: functional, organism-based
# Arabidopsis thaliana [15] = experiment: Growth inhibition of Arabidopsis thaliana var. Columbia assessed as stunting after 9 days by agarose-based test; type: functional, organism-based
# [16] = system: Agrostis stolonifera var. palustris; experiment: Herbicidal activity against Agrostis stolonifera var. palustris after 9 days by agarose-based test; type: functional
# Arabidopsis thaliana [17] = experiment: Growth inhibition of Arabidopsis thaliana var. Columbia after 9 days by agarose-based test; type: functional
# [18] = system: Agrostis stolonifera var. palustris; experiment: Herbicidal activity against Agrostis stolonifera var. palustris assessed as root tip puffing after 9 days by agarose-based test; type: functional, organism-based
# Avena fatua [19] = experiment: Post-emergence growth inhibition of Avena fatua assessed as visual injury at 0.25 kg/ha after 9 days relative to control; type: functional; set-up: scale not given: the % may be the effect or the level left
# Avena fatua [20] = experiment: Post-emergence growth inhibition of Avena fatua assessed as visual injury at 0.5 kg/ha after 9 days relative to control; type: functional; set-up: scale not given: the % may be the effect or the level left
# Avena fatua [21] = experiment: Post-emergence growth inhibition of Avena fatua assessed as visual injury at 1 kg/ha after 9 days relative to control; type: functional; set-up: scale not given: the % may be the effect or the level left
# Avena fatua [22] = experiment: Post-emergence growth inhibition of Avena fatua assessed as visual injury at 2 kg/ha after 9 days relative to control; type: functional; set-up: scale not given: the % may be the effect or the level left
# Echinochloa crus-galli [23] = experiment: Post-emergence herbicidal activity against Echinochloa crus-galli (barnyard grass) assessed as visual injury at 0.25 kg/ha after 9 days relative to control; type: functional
# Echinochloa crus-galli [24] = experiment: Post-emergence herbicidal activity against Echinochloa crus-galli (barnyard grass) assessed as visual injury at 0.5 kg/ha after 9 days relative to control; type: functional
# Echinochloa crus-galli [25] = experiment: Post-emergence herbicidal activity against Echinochloa crus-galli (barnyard grass) assessed as visual injury at 1 kg/ha after 9 days relative to control; type: functional
# Echinochloa crus-galli [26] = experiment: Post-emergence herbicidal activity against Echinochloa crus-galli (barnyard grass) assessed as visual injury at 2 kg/ha after 9 days relative to control; type: functional
# Ipomoea hederacea [27] = experiment: Post-emergence herbicidal activity against Ipomoea hederacea (ivy-leaved morning glory) assessed as visual injury at 0.25 kg/ha after 9 days relative to control; type: functional
# Ipomoea hederacea [28] = experiment: Post-emergence herbicidal activity against Ipomoea hederacea (ivy-leaved morning glory) assessed as visual injury at 0.5 kg/ha after 9 days relative to control; type: functional
# Ipomoea hederacea [29] = experiment: Post-emergence herbicidal activity against Ipomoea hederacea (ivy-leaved morning glory) assessed as visual injury at 1 kg/ha after 9 days relative to control; type: functional
# Ipomoea hederacea [30] = experiment: Post-emergence herbicidal activity against Ipomoea hederacea (ivy-leaved morning glory) assessed as visual injury at 2 kg/ha after 9 days relative to control; type: functional
# Helianthus annuus [31] = experiment: Post-emergence growth inhibition of Helianthus annuus (sunflower) assessed as visual injury at 0.25 kg/ha after 9 days relative to control; type: functional; set-up: scale not given: the % may be the effect or the level left
# Helianthus annuus [32] = experiment: Post-emergence growth inhibition of Helianthus annuus (sunflower) assessed as visual injury at 0.5 kg/ha after 9 days relative to control; type: functional; set-up: scale not given: the % may be the effect or the level left
# Helianthus annuus [33] = experiment: Post-emergence growth inhibition of Helianthus annuus (sunflower) assessed as visual injury at 1 kg/ha after 9 days relative to control; type: functional; set-up: scale not given: the % may be the effect or the level left
# Helianthus annuus [34] = experiment: Post-emergence growth inhibition of Helianthus annuus (sunflower) assessed as visual injury at 2 kg/ha after 9 days relative to control; type: functional; set-up: scale not given: the % may be the effect or the level left
# Ipomoea hederacea [35] = experiment: Post-emergence herbicidal activity against Ipomoea hederacea (ivy-leaved morning glory) after 9 days; type: functional
# Avena fatua [36] = experiment: Post-emergence growth inhibition of Avena fatua assessed as visual injury at 0.125 kg/ha after 9 days relative to control; type: functional; set-up: scale not given: the % may be the effect or the level left
# Echinochloa crus-galli [37] = experiment: Post-emergence herbicidal activity against Echinochloa crus-galli (barnyard grass) assessed as visual injury at 0.125 kg/ha after 9 days relative to control; type: functional
# Ipomoea hederacea [38] = experiment: Post-emergence herbicidal activity against Ipomoea hederacea (ivy-leaved morning glory) assessed as visual injury at 0.125 kg/ha after 9 days relative to control; type: functional
# Helianthus annuus [39] = experiment: Post-emergence growth inhibition of Helianthus annuus (sunflower) assessed as visual injury at 0.125 kg/ha after 9 days relative to control; type: functional; set-up: scale not given: the % may be the effect or the level left
SMILES,Activity (Helianthus annuus [1]),Activity (Helianthus annuus [2]),Activity [3],Activity (Helianthus annuus [4]),Activity (Helianthus annuus [5]),Activity (Helianthus annuus [6]),Activity (Helianthus annuus [7]),Activity (Abutilon theophrasti [8]),Activity (Abutilon theophrasti [9]),Activity (Abutilon theophrasti [10]),Activity (Abutilon theophrasti [11]),Activity (Abutilon theophrasti [12]),Activity (Abutilon theophrasti [13]),growth inhibition (GI) (Arabidopsis thaliana [14]),growth inhibition (GI) (Arabidopsis thaliana [15]),I50 [16],I50 (Arabidopsis thaliana [17]),Activity [18],further results
O=C1N[C@@H](Cc2c[nH]c3cccc([N+](=O)[O-])c23)C(=O)N[C@H]1Cc1ccccc1 [DES-N-METHYLTHAXTOMIN C],0%,50%,Active,0%,0%,0%,0%,0%,0%,0%,0%,0%,10%,Active,Active,600 ppb,400 ppb,Active,–
CN1C(=O)[C@](O)(Cc2ccc(O)c(O)c2)N(C)C(=O)[C@@H]1Cc1c[nH]c2cccc([N+](=O)[O-])c12 [HYDROXYTHAXTOMIN A],–,–,Active,–,–,–,–,–,–,–,–,–,–,Active,Active,40 ppb,10 ppb,Active,–
CN1C(=O)[C@](O)(Cc2ccccc2)NC(=O)[C@@H]1Cc1c[nH]c2cccc([N+](=O)[O-])c12 [HYDROXYTHAXTOMIN C],95%,100%,Active,0%,0%,20%,80%,0%,0%,0%,0%,20%,70%,Active,Active,<40 ppb,<40 ppb,Active,–
CN1C(=O)[C@](O)(Cc2ccccc2O)N(C)C(=O)[C@@H]1Cc1c[nH]c2cccc([N+](=O)[O-])c12 [THAXTOMIN A O-ISOMER],–,–,Active,–,–,–,–,–,–,–,–,–,–,Active,Active,90 ppb,100 ppb,Active,Activity (Avena fatua [19]): 0%; Activity (Avena fatua [20]): 0%; Activity (Avena fatua [21]): 0%; Activity (Avena fatua [22]): 0%; Activity (Echinochloa crus-galli [23]): 0%; Activity (Echinochloa crus-galli [24]): 0%; Activity (Echinochloa crus-galli [25]): 0%; Activity (Echinochloa crus-galli [26]): 20%; Activity (Ipomoea hederacea [27]): 0%; Activity (Ipomoea hederacea [28]): 10%; Activity (Ipomoea hederacea [29]): 40%; Activity (Ipomoea hederacea [30]): 40%; Activity (Helianthus annuus [31]): 0%; Activity (Helianthus annuus [32]): 10%; Activity (Helianthus annuus [33]): 75%; Activity (Helianthus annuus [34]): 75%
CN1C(=O)[C@](O)(Cc2ccc(O)cc2)N(C)C(=O)[C@@H]1Cc1c[nH]c2cccc([N+](=O)[O-])c12 [THAXTOMIN A P-ISOMER],–,–,Active,–,–,–,–,–,–,–,–,–,–,Active,Active,100 ppb,190 ppb,Active,–
CN1C(=O)[C@](O)(Cc2ccccc2)N(C)C(=O)[C@@H]1Cc1c[nH]c2cccc([N+](=O)[O-])c12 [THAXTOMIN B],–,–,Active,–,–,–,–,–,–,–,–,–,–,Active,Active,–,28 ppb,Active,–
CN1C(=O)[C@H](Cc2ccccc2)NC(=O)[C@@H]1Cc1c[nH]c2cccc([N+](=O)[O-])c12 [THAXTOMIN C],30%,75%,Active,0%,0%,0%,0%,0%,0%,0%,0%,0%,50%,Active,Active,40 ppb,50 ppb,Active,GR50 (Ipomoea hederacea [35]): <125 g/ha; Activity (Avena fatua [36]): 0%; Activity (Avena fatua [19]): 0%; Activity (Avena fatua [20]): 0%; Activity (Avena fatua [21]): 0%; Activity (Echinochloa crus-galli [37]): 0%; Activity (Echinochloa crus-galli [23]): 0%; Activity (Echinochloa crus-galli [24]): 20%; Activity (Echinochloa crus-galli [25]): 40%; Activity (Ipomoea hederacea [38]): 70%; Activity (Ipomoea hederacea [27]): 80%; Activity (Ipomoea hederacea [28]): 80%; Activity (Ipomoea hederacea [29]): 80%; Activity (Helianthus annuus [39]): 30%; Activity (Helianthus annuus [31]): 30%; Activity (Helianthus annuus [32]): 30%; Activity (Helianthus annuus [33]): 70%

# Reference: ChEMBL document CHEMBL3046609, “Herbicidal properties of the thaxtomin group of phytotoxins” (2001)
